US10829520B2, “Beta-hairpin peptidomimetics” (POLYPHOR AG, priority 2015, dated 2020)
Where a SMILES comes first, the peptide text is derived from it. Bridges are numbered along the chain shown (N, C = ends). Roman numbers before positions name the chains, in order. [ ]: non-standard residue; d: D form. Hyp = O=C(O)[C@@H]1C[C@@H](O)CN1; NMeDab = CN[C@@H](CCN)C(=O)O; Tle = CC(C)(C)[C@H](N)C(=O)O; dDab = NCC[C@@H](N)C(=O)O; Dab = NCC[C@H](N)C(=O)O; dAze = O=C(O)[C@H]1CCN1

What was measured:
Format in all cases: cell-based
[1] = test system: human red blood cells (hRBC); test: Hemolysis of human red blood cells; conditions: red cells of human, 1 h, 100
Procedure, shortened: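 Peptides at 100 μg/mL were incubated with PBS-washed fresh human erythrocytes (20% v/v, ~0.9×10^9 cells/mL final) for 1 h at 37° C. with shaking. Supernatant OD540 was read after 8-fold dilution; percent hemolysis was expressed relative to the 2.5% Triton X-100 full-lysis control, with PBS/0.001% acetic acid as 0%.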

[2] = test system: Klebsiella pneumoniae 968733; conditions: 968733
[3] = test system: Escherichia coli 926415; conditions: 926415
[4] = test system: Pseudomonas aeruginosa ATCC 27853; conditions: ATCC 27853
Procedure, shortened: (§1)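 Broth microdilution per CLSI, cation-adjusted MH-II medium, 0.002% (v/v) polysorbate 80 final. Approx. 10^6 CFU/mL inoculum, incubated 35° C for 18-20 h; MIC read as absence of visible growth.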

[5] = test system: Acinetobacter baumannii DSM 30008; conditions: DSM 30008
Procedure, shortened: as §1

[6] = test system: Klebsiella pneumoniae SSI #3010; conditions: SSI #3010
Procedure, shortened: as §1

[7] = test system: Escherichia coli ATCC 25922; conditions: ATCC 25922
Procedure, shortened: as §1

[8] = test system: Acinetobacter baumannii 872842; conditions: 872842

Compound | Hemolysis at 100 μg/mL [1] [%] | Klebsiella pneumoniae 968733 MIC [2] [µg/mL] | Escherichia coli 926415 MIC [3] [µg/mL] | Pseudomonas aeruginosa ATCC 27853 MIC [4] [µg/mL] | Acinetobacter baumannii DSM 30008 MIC [5] [µg/mL] | Klebsiella pneumoniae SSI #3010 MIC [6] [µg/mL] | Escherichia coli ATCC 25922 MIC [7] [µg/mL] | Acinetobacter baumannii 872842 MIC [8] [µg/mL]
CC(C)C[C@@H]1NC(=O)[C@@H](CC(C)C)NC(=O)[C@H](CCN)NC(=O)[C@@H](NC(=O)[C@H](CCN)NC(=O)[C@@H](NC(=O)[C@H](CCN)NC(=O)CC[C@@H]2NC(=O)[C@H](CCN)NC(=O)[C@H](Cc3ccc(O)cc3)NC(=O)[C@@H]3CCNC(=O)C[C@H](NC(=O)[C@H](C(C)(C)C)NC(=O)[C@H](CCN)NC(=O)[C@H](Cc4c[nH]c5ccccc45)NC(=O)[C@H](CCN)NC(=O)[C@@H](CCN)NC2=O)C(=O)N[C@@H]([C@@H](C)O)C(=O)N2CC[C@@H]2C(=O)N2CCC[C@H]2C(=O)N[C@@H](C(C)C)C(=O)N3)[C@@H](C)O)CCNC(=O)[C@H]([C@@H](C)O)NC(=O)[C@H](CCN)NC(=O)[C@H](CCN)NC1=O [Ex. 87] (I: cyclo(W[Dab][Tle]DT[dAze]PV[Dab]Y[Dab]E[dDab][Dab]) / II: [Dab]T[Dab][Dab][Dab][dL]L[Dab][Dab]T; lactam I:4-I:9, II:4-II:C; amide I:12-II:N) | <1 | 0.25 | 0.125 | 0.25 | 0.25 | 0.25 | 0.125 | 0.5
CC(C)C[C@@H]1NC(=O)[C@@H](CC(C)C)NC(=O)[C@H](CCN)NC(=O)[C@@H](NC(=O)[C@H](CCN)NC(=O)[C@@H](NC(=O)[C@H](CCN)NC(=O)CC[C@@H]2NC(=O)[C@H](CCN)NC(=O)[C@H](Cc3ccc(O)cc3)NC(=O)[C@H](CO)NC(=O)[C@H](CC(C)C)NC(=O)[C@@H]3C[C@@H](O)CN3C(=O)[C@@H](C)NC(=O)[C@H](CO)NC(=O)[C@H]([C@@H](C)O)NC(=O)[C@H](C(C)C)NC(=O)[C@H](CCN)NC(=O)[C@H](Cc3c[nH]c4ccccc34)NC(=O)[C@H](CCN)NC(=O)[C@@H](CCN)NC2=O)[C@@H](C)O)CCNC(=O)[C@H]([C@@H](C)O)NC(=O)[C@H](CCN)NC(=O)[C@H](CCN)NC1=O [Ex. 88] (I: cyclo([Dab]E[dDab][Dab]W[Dab]VTS[dA][Hyp]LSY) / II: [Dab]T[Dab][Dab][Dab][dL]L[Dab][Dab]T; amide I:2-II:N; lactam II:4-II:C) | 1 | 2 | 1 | 0.5 | 0.5 | 0.25 | 0.125 | 1
CC(C)C[C@@H]1NC(=O)[C@@H](CC(C)C)NC(=O)[C@H](CCN)NC(=O)[C@@H](NC(=O)[C@H](CCN)NC(=O)[C@@H](NC(=O)[C@H](CCN)N(C)C(=O)CC[C@@H]2NC(=O)[C@H](CCN)NC(=O)[C@H](Cc3ccc(O)cc3)NC(=O)[C@H](CO)NC(=O)[C@H](CC(C)C)NC(=O)[C@@H]3CCCN3C(=O)[C@H]3CCCN3C(=O)[C@H](CO)NC(=O)[C@H]([C@@H](C)O)NC(=O)[C@H](C(C)C)NC(=O)[C@H](CCN)NC(=O)[C@H](Cc3c[nH]c4ccccc34)NC(=O)[C@H](CCN)NC(=O)[C@@H](CCN)NC2=O)[C@@H](C)O)CCNC(=O)[C@H]([C@@H](C)O)NC(=O)[C@H](CCN)NC(=O)[C@H](CCN)NC1=O [Ex. 89] (I: cyclo(LSY[Dab]E[dDab][Dab]W[Dab]VTS[dP]P) / II: [NMeDab]T[Dab][Dab][Dab][dL]L[Dab][Dab]T; amide I:5-II:N; lactam II:4-II:C) | 1 | 0.5 | 1 | 0.25 | 0.125 | 0.25 | 0.125 | 1
CC(C)C[C@@H]1NC(=O)[C@@H](CC(C)C)NC(=O)[C@H](CCN)NC(=O)[C@@H](NC(=O)[C@H](CCN)NC(=O)[C@@H](NC(=O)[C@H](CCN)NC(=O)CC[C@@H]2NC(=O)CNC(=O)[C@H](Cc3ccc(O)cc3)NC(=O)[C@H](CO)NC(=O)[C@H](CC(C)C)NC(=O)[C@@H]3CCCN3C(=O)[C@H]3CCCN3C(=O)[C@H](CO)NC(=O)[C@H]([C@@H](C)O)NC(=O)[C@H](C(C)C)NC(=O)[C@H](CCN)NC(=O)[C@H](Cc3c[nH]c4ccccc34)NC(=O)[C@H](CCN)NC(=O)[C@@H](CCN)NC2=O)[C@@H](C)O)CCNC(=O)[C@H]([C@@H](C)O)NC(=O)[C@H](CCN)NC(=O)[C@H](CCN)NC1=O [Ex. 90] (I: cyclo(LSYGE[dDab][Dab]W[Dab]VTS[dP]P) / II: [Dab]T[Dab][Dab][Dab][dL]L[Dab][Dab]T; amide I:5-II:N; lactam II:4-II:C) | 1 | 0.25 | 0.25 | 0.25 | 0.125 | 0.125 | 0.125 | 0.25
CC(C)C[C@@H]1NC(=O)[C@@H](CC(C)C)NC(=O)[C@H](CCN)NC(=O)[C@@H](NC(=O)[C@H](CCN)NC(=O)[C@@H](NC(=O)[C@H](CCN)NC(=O)CC[C@@H]2NC(=O)[C@H](CCN)NC(=O)[C@H](Cc3ccc(O)cc3)NC(=O)[C@H]([C@@H](C)O)NC(=O)[C@H](CC(C)C)NC(=O)[C@@H]3CCCN3C(=O)[C@H]3CCCN3C(=O)[C@H](CO)NC(=O)[C@H]([C@@H](C)O)NC(=O)[C@H](C(C)C)NC(=O)[C@H](CCN)NC(=O)[C@H](Cc3c[nH]c4ccccc34)NC(=O)[C@H](CCN)NC(=O)[C@@H](CCN)NC2=O)[C@@H](C)O)CCNC(=O)[C@H]([C@@H](C)O)NC(=O)[C@H](CCN)NC(=O)[C@H](CCN)NC1=O [Ex. 91] (I: cyclo(LTY[Dab]E[dDab][Dab]W[Dab]VTS[dP]P) / II: [Dab]T[Dab][Dab][Dab][dL]L[Dab][Dab]T; amide I:5-II:N; lactam II:4-II:C) | 1 | 1 | 0.5 | 0.5 | 0.25 | 0.125 | 0.125 | 0.5
CC(C)C[C@@H]1NC(=O)[C@@H](CC(C)C)NC(=O)[C@H](CCN)NC(=O)[C@@H](NC(=O)[C@H](CCN)NC(=O)[C@@H](NC(=O)[C@H](CCN)NC(=O)CC[C@@H]2NC(=O)[C@H](CCN)NC(=O)[C@H](Cc3ccc(O)cc3)NC(=O)[C@H](CO)NC(=O)[C@H](CC(C)C)NC(=O)[C@@H]3CCCN3C(=O)[C@H]3CCCN3C(=O)[C@H](CO)NC(=O)[C@H]([C@@H](C)O)NC(=O)[C@H](C(C)C)NC(=O)[C@H](CCN)NC(=O)[C@H](Cc3c[nH]c4ccccc34)NC(=O)[C@H](CCN)NC(=O)[C@@H](CCN)NC2=O)[C@@H](C)O)CCNC(=O)[C@H]([C@@H](C)O)NC(=O)[C@H](CCN)NC(=O)[C@H](CCN)NC1=O [Ex. 92] (I: cyclo(W[Dab]VTS[dP]PLSY[Dab]E[dDab][Dab]) / II: [Dab]T[Dab][Dab][Dab][dL]L[Dab][Dab]T; amide I:12-II:N; lactam II:4-II:C) | 1 | 0.5 | 0.5 | 0.25 | 0.25 | 0.25 | 0.125 | 0.5
CC(C)C[C@@H]1NC(=O)[C@@H](CC(C)C)NC(=O)[C@H](CCN)NC(=O)[C@@H](NC(=O)[C@H](CCN)NC(=O)[C@@H](NC(=O)[C@H](CCN)NC(=O)CC[C@@H]2NC(=O)[C@H](CCN)NC(=O)[C@H](Cc3ccc(O)cc3)NC(=O)[C@H]([C@@H](C)O)NC(=O)[C@H](C(C)C)NC(=O)[C@@H]3C[C@@H](O)CN3C(=O)[C@H]3CCN3C(=O)[C@H](CO)NC(=O)[C@H](CO)NC(=O)[C@H](C(C)C)NC(=O)[C@H](CCN)NC(=O)[C@H](Cc3c[nH]c4ccccc34)NC(=O)[C@H](CCN)NC(=O)[C@@H](CCN)NC2=O)[C@@H](C)O)CCNC(=O)[C@H]([C@@H](C)O)NC(=O)[C@H](CCN)NC(=O)[C@H](CCN)NC1=O [Ex. 93] (I: cyclo([Dab]E[dDab][Dab]W[Dab]VSS[dAze][Hyp]VTY) / II: [Dab]T[Dab][Dab][Dab][dL]L[Dab][Dab]T; amide I:2-II:N; lactam II:4-II:C) | 1 | 8 | 2 | 0.25 | 2 | 0.25 | 0.5 | 1
